From patent US11298363B2, “Triazolobenzazepines as vasopressin V1a receptor antagonists” (RICHTER GEDEON NYRT., priority 2017, dated 2022) come the findings set out here.

Experiment [1] has as its target T1, human vasopressin V1a receptor (Homo sapiens, UniProt P37288). In words: Human vasopressin V1a receptor binding assay. The note with it: 1321N1 cell membranes, [3H]vasopressin; read-out: Ki (nM) on hV1a cell line. An outline of the steps:
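Ki values come from IC50 via Cheng-Prusoff (KD from prior Scatchard), averaged over at least two independent runs. Human V1a membranes were incubated with radioligand 60 minutes at 27° C., bound ligand collected by filtration; (Arg^8)-vasopressin at 1.2×10^−6 M defined non-specific binding.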

Experiment [2] has as its target human vasopressin V2 receptor (Homo sapiens, UniProt P30518). In words: Human vasopressin V2 receptor binding assay on 1321N1 cell line. The note with it: for inhibition at 1 µM: read-out: inhibition % at 1 μM on hV2 1321N1 cell line; for Ki: 1321N1 cell line, read-out: Ki on hV2 1321N1 cell line. Here is the method: Human Vasopressin V2 Receptor Binding Assay Cells and Radioligand
To determine the final affinity value, the results of at least two independent experiments were taken into account.
Non-specific binding values were determined in the presence of an unlabeled 1.2×10^−6 M (Arg^8)-vasopressin. Samples were incubated in a total volume of 0.55 ml for 90 minutes at 27° C. Membrane-bound and free ligands were separated by filtration through a 0.5% polyethyleneimine-impregnated UniFilter® GF/B™. After drying the filter plates, 40 μl Microscint-20 (Packard) scintillation cocktail was added to the samples. Finally, radioactivity was measured using MicroBeta^2 Microplate Counter (Perkin Elmer).
The radioligand displacement ability of a substance is determined in at least two independent experiments. Specific radioligand binding can be defined as the difference between total and non-specific binding in the presence of a saturation amount of the unlabeled ligand or different concentrations of the substance to be tested. The results are given as a percentage of inhibition of the specific binding achieved in the presence of the substance to be tested.
During fitting, the asymptotes are not fixed. The Ki values (inhibition constant) are given with Cheng-Prusoff equation Ki=IC50/[1+(L/KD)] wherein [L] is the radioligand concentration used in the experiment and [KD] is the affinity of the radioactively labelled ligand for the given receptor. The KD is determined beforehand using the Scatchard curve.

Experiment [3] concerns the target T1, human vasopressin V1a receptor. As to the kind of experiment: Functional assay on human vasopressin V1a receptor expressing cell line (intracellular Ca2+ fluorescence). It is filed as cell-based. Conditions: 1321N1 cells, (Arg8)-vasopressin at EC80; read-out: IC50 (nM) on hV1a cell line.
In experiment [4] the target is mouse V1a receptor (Mus musculus, UniProt Q62463). In words: Functional V1a in vivo test: inhibition of oxytocin-induced scratching behaviour. The note with it: mice, 10 mg/kg p.o. pretreatment. As to the method:
Functional V1a In Vivo Test
Male mice (NMRI, ToxiCoop) weighing 18-40 g were used. Animals were kept at least 5 days after delivery, during housing and measurements they were fed and drink ad libitum. The experiments were permitted by the Local Animal Protection Committee and carried out in accordance with the European Animal Protection Directives (EU Directive 2010/63/EU).
Animal behaviour was measured by an automated behavioral analysis system (LABORAS™). The sensors located below platforms detect the mechanical vibration generated by the movement of animal, and transform into an electrical signal (Quinn et al., J Neurosci Methods 2003, 130:83-92). After analyzing signals, the system analyzes the time spent with the following behavioral parameters: locomotion, immobility, climbing, grooming. The grooming algorithm by definition is able to measure the scratching behavioral response. During the experiment, mice were pretreated with the test substance or vehicle, and after the pretreatment period scratching-inducing compound (s.c. 0.3 mg/kg oxytocin) was administered, and then the animals were individually placed into measuring cages. […] To reduce the exploratory activity, the animals were measured after a 1-hour habituation to the cage. The behavioural parameters were compared to the parallel measured parameters of the control animals.
The behavioural inhibitory effect of the substances was calculated with average values of parallel measured vehicle treated groups and presented as the percentage of inhibition: 0% was expressed as average value of scratching behaviour of vehicle pretreated animals (and phys. saline s.c. pretreated with vehicle), while 100% was expressed as average value of scratching of vehicle pretreated animals that received oxytocin subcutaneously. For statistical analysis one-way analysis of variance (ANOVA) with Tukey post hoc test were used.

Chain of mouse V1a receptor (Q62463 whole entry): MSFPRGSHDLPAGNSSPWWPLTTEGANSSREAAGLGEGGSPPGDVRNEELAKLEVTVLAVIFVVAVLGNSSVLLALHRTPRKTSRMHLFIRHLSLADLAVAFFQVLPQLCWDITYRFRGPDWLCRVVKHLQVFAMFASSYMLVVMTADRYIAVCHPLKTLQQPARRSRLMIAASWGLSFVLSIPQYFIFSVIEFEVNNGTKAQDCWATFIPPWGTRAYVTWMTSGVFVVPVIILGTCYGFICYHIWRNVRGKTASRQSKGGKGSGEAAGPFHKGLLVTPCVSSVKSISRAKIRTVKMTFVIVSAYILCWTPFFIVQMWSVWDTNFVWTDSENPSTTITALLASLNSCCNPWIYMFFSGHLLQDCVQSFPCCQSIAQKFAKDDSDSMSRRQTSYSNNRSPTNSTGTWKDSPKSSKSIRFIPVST
Chain of human vasopressin V2 receptor (P30518 whole entry): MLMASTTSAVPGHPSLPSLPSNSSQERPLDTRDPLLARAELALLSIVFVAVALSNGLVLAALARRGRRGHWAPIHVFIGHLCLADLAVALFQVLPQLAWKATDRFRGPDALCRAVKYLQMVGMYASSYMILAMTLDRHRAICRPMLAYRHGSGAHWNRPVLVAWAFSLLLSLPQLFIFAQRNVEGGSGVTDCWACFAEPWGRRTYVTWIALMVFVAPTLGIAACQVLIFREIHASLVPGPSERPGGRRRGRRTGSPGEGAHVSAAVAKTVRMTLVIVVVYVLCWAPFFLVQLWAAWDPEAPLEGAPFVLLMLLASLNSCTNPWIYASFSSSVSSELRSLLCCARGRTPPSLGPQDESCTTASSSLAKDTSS
T1 sequence (P37288 whole entry): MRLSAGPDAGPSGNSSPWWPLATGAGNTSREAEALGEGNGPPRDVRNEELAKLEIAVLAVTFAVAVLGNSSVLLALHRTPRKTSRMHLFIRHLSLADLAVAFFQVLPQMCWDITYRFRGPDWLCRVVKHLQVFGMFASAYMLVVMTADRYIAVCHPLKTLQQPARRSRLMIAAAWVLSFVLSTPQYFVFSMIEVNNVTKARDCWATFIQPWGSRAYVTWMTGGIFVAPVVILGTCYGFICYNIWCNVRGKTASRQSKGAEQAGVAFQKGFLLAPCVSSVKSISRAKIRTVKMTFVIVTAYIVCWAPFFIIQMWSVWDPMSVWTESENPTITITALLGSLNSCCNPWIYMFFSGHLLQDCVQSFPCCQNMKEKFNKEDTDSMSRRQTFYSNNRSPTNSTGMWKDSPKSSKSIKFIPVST

As for `CC(C)(C)OC(=O)NC1Cc2cc(Cl)ccc2-n2c(nnc2C2CCN(c3ccccn3)CC2)C1` (stereo not drawn) [Example 1, Tert-butyl [8-chloro-1-[1-(pyridin-2-yl)piperidin-4-yl]-5,6-dihydro-4H-[1,2,4]triazolo[4,3-a][1]benzazepin-5-yl]carbamate], the Ki (in general, the dissociation constant of the complex between target and ligand, obtained from inhibition or displacement) in experiment [1] worked out at 6 nM. The inhibition (in general, the relative decrease from the control value, in per cent) at 1 µM in experiment [2] amounted to 4%. The concentration for half-maximal inhibition (IC50) (as a rule, the concentration at which inhibition is half-maximal) in experiment [3] stood at 95 nM.

Consider `FC(F)(F)c1ccc2c(c1)CC1(Cc3nnc([C@H]4CC[C@H](Oc5ccccn5)CC4)n3-2)OCCO1` [Example 47], for which the results for the Ki in experiment [1] and in experiment [2] were 0.8 nM and 366 nM, respectively. Moreover, in experiment [3], the IC50 was 2.3 nM.

Regarding `CNC1Cc2cc(Cl)ccc2-n2c(nnc2[C@H]2CC[C@H](Oc3ccccn3)CC2)C1` (stereo partly drawn) [Example 21, 8-chloro-N-methyl-1-[trans-4-(pyridin-2-yloxy)cyclohexyl]-5,6-dihydro-4H-[1,2,4]triazolo[4,3a][1]benzazepine-5-amine], the Ki in experiment [1] turned out to be 0.7 nM. The inhibition at 1 µM in experiment [2] worked out at 35%. Moreover, the IC50 in experiment [3] was determined as 4 nM.

As to `NC1Cc2cc(Cl)ccc2-n2c(nnc2[C@H]2CC[C@H](Oc3ccccn3)CC2)C1` (stereo partly drawn) [Example 6, 8-chloro-1-[trans-4-(pyridin-2-yloxy)cyclohexyl]-5,6-dihydro-4H-[1,2,4]triazolo[4,3-a][1]benzazepine-5-amine], in experiment [1], the inhibitory constant (Ki) turned out to be 2 nM. In experiment [2], the inhibition at 1 µM worked out at 3%. The concentration for half-maximal inhibition (IC50) in experiment [3] was determined as 9 nM.

Turning to `CO[C@]1(C)CC[C@@H](c2nnc3n2-c2ccc(Cl)cc2CC2(C3)OCCO2)CC1` [Example 198, 8′-chloro-1′-(trans-4-methoxy-4-methylcyclohexyl)-4′H,6′H-spiro[1,3-dioxolane-2,5′-[1,2,4]triazolo[4,3-a][1]benzazepine]], in experiment [1], the Ki was 0.2 nM. Besides, the “inhibition (%) of oxytocin-induced scratching behaviour response” value (“inhibition (%)” below) in experiment [4] came to 41%. Also, in experiment [3], the IC50 is 0.9 nM.

Turning to `CO[C@H]1Cc2cc(Cl)ccc2-n2c(nnc2[C@H]2CC[C@H](Oc3ccccn3)CC2)C1` (single isomer, unassigned) [Example 103], the Ki in experiment [1] amounted to 0.2 nM. For the same molecule, the “inhibition (%)” value in experiment [4] worked out at 71%. Further, in experiment [3], the half-inhibitory concentration (IC50) is 0.7 nM.

Turning to `Clc1ccc2c(c1)CC1(Cc3nnc(N4CCC(Oc5ccccn5)CC4)n3-2)OCCO1` [Example 157, 8′-chloro-1′-[4-(pyridin-2-yloxy)piperidin-1-yl]-4′H,6′H-spiro[1,3-dioxolane-2,5′-[1,2,4]triazolo[4,3-a][1]benzazepine]], in experiment [1], the Ki is 0.1 nM. In addition, in experiment [4], the “inhibition (%)” value was 108%. For the same molecule, in experiment [3], the IC50 is 0.5 nM.

`Clc1ccc2c(c1)CC(NC1CCOCC1)Cc1nnc([C@H]3CC[C@H](Oc4ccccn4)CC3)n1-2` (stereo partly drawn) [Example 29, 8-chloro-1-[trans-4-(pyridin-2-yloxy)cyclohexyl]-N-(tetrahydro-2H-pyran-4-yl)-5,6-dihydro-4H-[1,2,4]triazolo[4,3-a][1]benzazepine-5-amine]: the inhibition constant Ki in experiment [1] was 0.6 nM. Besides, in experiment [4], the “inhibition (%)” value is 89%. Also, in experiment [3], the IC50 was 5.4 nM.

For `NCC(=O)N[C@@H]1Cc2cc(Cl)ccc2-n2c(nnc2[C@H]2CC[C@H](Oc3ccccn3)CC2)C1` [Example 12, N-{(5R)-8-chloro-1-[trans-4-(pyridin-2-yloxy)cyclohexyl]-5,6-dihydro-4H-[1,2,4]triazolo[4,3-a][1]benzazepin-5-yl}glycinamide], the Ki in experiment [1] was 0.8 nM. Also, the “inhibition (%)” value in experiment [4] turned out to be 34%. Further, the concentration for half-maximal inhibition (IC50) in experiment [3] was found to be 9 nM.

For the molecule `CS(=O)(=O)NC1Cc2cc(Cl)ccc2-n2c(nnc2[C@H]2CC[C@H](Oc3ccccn3)CC2)C1` (stereo partly drawn) [Example 18, N-{8-chloro-1-[trans-4-(pyridin-2-yloxy)cyclohexyl]-5,6-dihydro-4H-[1,2,4]triazolo[4,3-a][1]benzazepin-5-yl}methanesulfonamide], the values for the inhibitory constant (Ki) in experiment [1] and in experiment [2] were 0.5 nM and 255 nM, respectively. The IC50 in experiment [3] is 1.6 nM.

On to `CO[C@@H]1Cc2cc(Cl)ccc2-n2c(nnc2[C@H]2CC[C@H](Oc3ccccn3)CC2)C1` (single isomer, unassigned) [Example 104], for which the Ki in experiment [1] came out at 0.2 nM. In addition, in experiment [4], the “inhibition (%)” value was found to be 67%. Further, the IC50 in experiment [3] was determined as 0.6 nM.

Take `CN[C@@H]1Cc2cc(Cl)ccc2-n2c(nnc2[C@H]2CC[C@H](Oc3ccccn3)CC2)C1` [Example 100, (5R)-8-chloro-N-methyl-1-[trans-4-(pyridin-2-yloxy)cyclohexyl]-5,6-dihydro-4H-[1,2,4]triazolo[4,3-a][1]benzazepin-5-amine]: the Ki in experiment [1] was 0.2 nM. In addition, the “inhibition (%)” value in experiment [4] was determined as 96%. Further, the IC50 in experiment [3] came out at 1.5 nM.

For the molecule `FC(F)(F)[C@H]1CC[C@H](c2nnc3n2-c2ccc(Cl)cc2CC2(C3)OCCCO2)CC1` [Example 89, 8′-chloro-1′-[trans-4-(trifluoromethyl)cyclohexyl]-4′H,6′H-spiro[[1,3]dioxane-2,5′-[1,2,4]triazolo[4,3-a][1]benzazepine]], in experiment [1], the inhibition constant Ki was determined as 0.4 nM. In experiment [4], the “inhibition (%)” value stood at 50%. In experiment [3], the IC50 came out at 1.9 nM.

In the case of `CO[C@]1(C)CC[C@@H](c2nnc3n2-c2ccc(Cl)cc2CC2(C3)OCCCO2)CC1` [Example 204, 8′-chloro-1′-(trans-4-methoxy-4-methylcyclohexyl)-4′H,6′H-spiro[1,3-dioxane-2,5′-[1,2,4]triazolo[4,3-a][1]benzazepine]], in experiment [1], the Ki was found to be 0.2 nM. In experiment [4], the “inhibition (%)” value worked out at 65%. Also, the IC50 in experiment [3] amounted to 2.7 nM.

Regarding `COC1Cc2cc(Cl)ccc2-n2c(nnc2[C@H]2CC[C@H](Oc3ccccn3)CC2)C1` (mixture of isomers) [Example 58, 8-chloro-5-methoxy-1-[trans-4-(pyridin-2-yloxy)cyclohexyl]-5,6-dihydro-4H-[1,2,4]triazolo[4,3-a][1]benzazepine], the Ki in experiment [1] is 0.3 nM. For the same molecule, in experiment [4], the “inhibition (%)” value is on record as 96%. The IC50 in experiment [3] came out at 1.4 nM.

With `COC1Cc2cc(Cl)ccc2-n2c(nnc2[C@H]2CC[C@H](C(F)(F)F)CC2)C1` (mixture of isomers) [Example 74, 8-chloro-5-methoxy-1-[trans-4-(trifluoromethyl)cyclohexyl]-5,6-dihydro-4H-[1,2,4]triazolo[4,3-a][1]benzazepine], the Ki in experiment [1] stood at 4 nM. The “inhibition (%)” value in experiment [4] came to 30%. The IC50 in experiment [3] stood at 2.6 nM.

Take `N#Cc1ccc2c(c1)CC1(Cc3nnc([C@H]4CC[C@H](Oc5ccccn5)CC4)n3-2)OCCO1` [Example 66, 1′-[trans-4-(pyridin-2-yloxy)cyclohexyl]-4′H,6′H-spiro[1,3-dioxolane-2,5′-[1,2,4]triazolo[4,3-a][1]benzazepine]-8′-carbonitrile]: the inhibition constant Ki in experiment [1] worked out at 0.8 nM. Also, the “inhibition (%)” value in experiment [4] is reported as 76%. The concentration for half-maximal inhibition (IC50) in experiment [3] was 2.2 nM.

For the molecule `CN(C)CCOC1Cc2cc(Cl)ccc2-n2c(nnc2[C@H]2CC[C@H](Oc3ccccn3)CC2)C1` (stereo partly drawn) [Example 60, 2-({8-chloro-1-[trans-4-(pyridin-2-yloxy)cyclohexyl]-5,6-dihydro-4H-[1,2,4]triazolo[4,3-a][1]benzazepin-5-yl}oxy)-N,N-dimethylethanamine], in experiment [1], the Ki came out at 2 nM. The “inhibition (%)” value in experiment [4] stood at 40%. Further, in experiment [3], the concentration for half-maximal inhibition (IC50) is 45 nM.
